Assay results reported in patent publication US20100093696A1, “2-AMINO PYRIMIDINE COMPOUNDS” (Pfizer Inc., priority 2007, published 2010).
Where a name gives a salt, the structure may show the parent alone.

Each molecule was assayed against HSP-90 (Homo sapiens, UniProt P07900) (assay: HSP-90 SPA (scintillation proximity assay) competition binding assay, tritiated Compound A radioligand (G2)). Conditions: read-out: (G2): % inhibition.
CCOC(=O)N1Cc2nc(N)nc(Oc3ccc(Cl)cc3Br)c2C1 [Example 23, ethyl 2-amino-4-(2-bromo-4-chlorophenoxy)-5,7-dihydro-6H-pyrrolo[34-d]pyrimidine-6-carboxylate] gave an inhibition at 10 µM of 0%. CCOC(=O)N1Cc2nc(N)nc(Oc3cc(C)c(Cl)c(C)c3)c2C1 [Example 25, ethyl 2-amino-4-(4-chloro-35-dimethylphenoxy)-5,7-dihydro-6H-pyrrolo[34-d]pyrimidine-6-carboxylate hydrochloride] gave an inhibition at 10 µM of 0%. For CCOC(=O)N1Cc2nc(N)nc(Oc3ccc(Cl)cc3OC)c2C1 [Example 27, ethyl 2-amino-4-(4-chloro-2-methoxyphenoxy)-5,7-dihydro-6H-pyrrolo[3,4-d]pyrimidine-6-carboxylate], the inhibition at 10 µM was 0%. CCOC(=O)N1Cc2nc(N)nc(-n3ccc4ccc(F)cc43)c2C1 [Example 46, ethyl 2-amino-4-(6-fluoro-1H-indol-1-yl)-5,7-dihydro-6H-pyrrolo[3,4-d]pyrimidine-6-carboxylate] gave an inhibition at 10 µM of 0%.
